Drawing on PubChem BioAssay (NCI), this text covers TGI and GI50 for 15 compounds.

One may read the TGI as the concentration at which net growth stops. A lower TGI goes with more potent growth arrest. The GI50 is the concentration at which growth is held to half of that of the control.

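Where inhibition never reached the appropriate level, the endpoint shown equals the highest concentration tested. Otherwise, values were interpolated linearly from a five-concentration, 48-hour dose response in 96-well plates. GI50 marks 50% less growth. TGI denotes the concentration required for complete inhibition of growth.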

Among the test systems are A549 NSCLC; CCRF-CEM leukemia; IGROV1 ovarian; MDA-MB-435; 786-0 renal; CAKI-1 renal; HOP-62 NSCLC; ACHN renal; HL-60(TB) leukemia; A498 renal.
Common to all, as to experiment: DTP human tumour cell line panel, 48 h

In the case of `CC1(C)O[C@@H](CP(c2cccc3ccccc23)c2cccc3ccccc23)[C@H](CP(c2cccc3ccccc23)c2cccc3ccccc23)O1`, the TGI in the experiment on A549 NSCLC, with CCRF-CEM leukemia, with IGROV1 ovarian, in the experiment with MDA-MB-435, in the experiment with 786-0 renal and with CAKI-1 renal was over 100 µM each time. Moreover, the TGI in the experiment on HOP-62 NSCLC and in the experiment with ACHN renal was over 100 µM in each case.

For the compound `O=C1OC(c2ccccc2)=N/C1=C/N1CCCC1C(=O)O` (centres undefined), the TGI in the experiment with A549 NSCLC, in the experiment on HL-60(TB) leukemia, in the experiment on A498 renal, in the experiment on CCRF-CEM leukemia, with IGROV1 ovarian and in the experiment on 786-0 renal was over 100 µM in each case. In addition, the TGI in the experiment on CAKI-1 renal, in the experiment on HOP-62 NSCLC and with ACHN renal was over 100 µM each time.

As to `CSC1NNC2(C(=O)N1)c1ccccc1-c1ccccc12` (centres undefined), the TGI in the experiment with A549 NSCLC, with HL-60(TB) leukemia, in the experiment with CCRF-CEM leukemia, in the experiment on IGROV1 ovarian, in the experiment with MDA-MB-435 and with 786-0 renal was over 10 µM in each case. Also, the TGI with CAKI-1 renal, with HOP-62 NSCLC and in the experiment with ACHN renal was over 10 µM in each case.

For `O=C(NCCCCNCCCNC(=O)OCc1ccccc1)OCc1ccccc1`, the TGI in the experiment on A549 NSCLC was over 100 µM; with HL-60(TB) leukemia, 60.4 µM; with A498 renal it was 36.8 µM; in the experiment with CCRF-CEM leukemia it was 82.1 µM; in the experiment with IGROV1 ovarian, 73.9 µM; with MDA-MB-435 it was over 100 µM. The results for the total growth inhibition concentration (TGI) in the experiment with 786-0 renal, in the experiment on HOP-62 NSCLC and in the experiment with ACHN renal were 55.5 µM, over 100 µM and over 100 µM, respectively.

With `CN(CCN(C)C(=O)CCn1ccc(=O)[nH]c1=O)C(=O)CCn1ccc(=O)[nH]c1=O`, the TGI in the experiment with A549 NSCLC, in the experiment with HL-60(TB) leukemia, in the experiment with CCRF-CEM leukemia, with IGROV1 ovarian, with 786-0 renal and in the experiment on HOP-62 NSCLC was over 100 µM in each case. Further, the TGI with ACHN renal was over 100 µM.

As to `COc1ccc(N2C(=O)C(N3C(=O)C=CC3=O)C2C=O)cc1` (centres undefined), the TGI in the experiment on A549 NSCLC, in the experiment on HL-60(TB) leukemia, in the experiment on A498 renal, in the experiment with CCRF-CEM leukemia, with IGROV1 ovarian and in the experiment with 786-0 renal was over 100 µM in each case. Further, the TGI with CAKI-1 renal, with HOP-62 NSCLC and in the experiment with ACHN renal was over 100 µM each time.

As for `CCOC(=O)C[n+]1ccc2c([nH]c3cc(OC)ccc32)c1C`, the concentration for total growth inhibition (TGI) in the experiment on A549 NSCLC, in the experiment on HL-60(TB) leukemia, with A498 renal, with CCRF-CEM leukemia, in the experiment on IGROV1 ovarian and in the experiment with CAKI-1 renal was over 100 µM throughout. In the experiment on HOP-62 NSCLC, the TGI was over 100 µM.

On to `COC(=O)[C@@H]1O[C@]12[C@@H](CO[Si](C)(C)C(C)(C)C)O[C@@H](n1cc(C)c(=O)[nH]c1=O)[C@@H]2O[Si](C)(C)C(C)(C)C`, for which the TGI in the experiment with A549 NSCLC was determined as 64 µM; in the experiment with HL-60(TB) leukemia, 5.47 µM; with CCRF-CEM leukemia it was 4.79 µM; in the experiment with IGROV1 ovarian, 21.6 µM; in the experiment on MDA-MB-435 it was 59.2 µM; in the experiment on CAKI-1 renal it was 70 µM. The TGI amounted to 70.7 µM in the experiment on HOP-62 NSCLC and 33 µM with ACHN renal.

On to `CCCCCCc1cn([C@H]2C[C@H](O)[C@@H](CO)O2)c(=O)[nH]c1=O`, for which the TGI with A549 NSCLC, with HL-60(TB) leukemia, in the experiment with A498 renal, with CCRF-CEM leukemia, with IGROV1 ovarian and in the experiment on CAKI-1 renal was over 100 µM each time.

Consider `c1cc2ccc1CNCCN1CCNCc3ccc(cc3)Oc3ccc(cc3)CNCCN(CCNCc3ccc(cc3)O2)CCNCc2ccc(cc2)Oc2ccc(cc2)CNCC1`, for which the GI50 in the experiment with HL-60(TB) leukemia is 0.503 µM; in the experiment with MDA-MB-435, 1.36 µM; in the experiment with CAKI-1 renal, 3.07 µM; with HOP-62 NSCLC, 1.51 µM; with ACHN renal, 3.88 µM. In addition, the TGI amounted to 2.02 µM in the experiment on HL-60(TB) leukemia; 2.7 µM in the experiment with MDA-MB-435; 12.9 µM in the experiment with CAKI-1 renal; 2.96 µM with HOP-62 NSCLC; 15.5 µM in the experiment with ACHN renal.

As to `COc1cc(C2(C)SCCCS2)c(I)c(OC)c1OC`, the TGI with A549 NSCLC, with HL-60(TB) leukemia, in the experiment with A498 renal, in the experiment with CCRF-CEM leukemia, in the experiment with IGROV1 ovarian and in the experiment with 786-0 renal was over 100 µM throughout. Moreover, the TGI in the experiment with CAKI-1 renal, in the experiment on HOP-62 NSCLC and in the experiment on ACHN renal was over 100 µM each time.

Regarding `CCC1CCC2c3c([nH]c4ccccc34)C3C(=O)N(c4ccc(OC)cc4)C(=O)C3C2C1` (centres undefined), the TGI in the experiment with A549 NSCLC is 59.7 µM; in the experiment on HL-60(TB) leukemia, 75 µM; with CCRF-CEM leukemia, 26.7 µM; in the experiment with IGROV1 ovarian, over 100 µM; with MDA-MB-435, over 100 µM; in the experiment on 786-0 renal, over 100 µM. Also, the TGI in the experiment with HOP-62 NSCLC and in the experiment with ACHN renal was over 100 µM throughout.

As to `C[n+]1c(-c2ccc(/C=N/Nc3ccnc(N/N=C/c4ccc(-c5cn6ccccc6[n+]5C)cc4)n3)cc2)cn2ccccc21`, the TGI in the experiment on A549 NSCLC is over 100 µM; in the experiment with HL-60(TB) leukemia, 65.7 µM; with IGROV1 ovarian, over 100 µM; in the experiment with 786-0 renal, over 100 µM; in the experiment with HOP-62 NSCLC, over 100 µM; with ACHN renal, 54.4 µM.

For the compound `NC1CCCCC1N.O=S(=O)([O-])CCCN1CCN(CCO)CC1.O=S(=O)([O-])CCCN1CCN(CCO)CC1.[Pt+4]`, the GI50 is 4.7 µM in the experiment on A549 NSCLC; 0.132 µM in the experiment on HL-60(TB) leukemia; 6.05 µM in the experiment on A498 renal; 2.21 µM in the experiment with CCRF-CEM leukemia; 8.14 µM in the experiment on IGROV1 ovarian; 0.856 µM with CAKI-1 renal. The GI50 with HOP-62 NSCLC was over 20.7 µM. In addition, the TGI with A549 NSCLC was over 100 µM; in the experiment with HL-60(TB) leukemia, 11.6 µM; with A498 renal, over 100 µM; in the experiment with CCRF-CEM leukemia it was over 50.5 µM; in the experiment with IGROV1 ovarian it was over 100 µM; in the experiment on CAKI-1 renal, 9.16 µM. In addition, the TGI in the experiment on HOP-62 NSCLC is over 100 µM.

As to `CC1(C)N=C(N)N=C(N)N1c1ccc(OCCCOc2ccccc2)c(Cl)c1`, the TGI is over 100 µM with A549 NSCLC; 30.2 µM in the experiment on A498 renal; 29.7 µM in the experiment on CCRF-CEM leukemia; 7.52 µM in the experiment with IGROV1 ovarian; 44.3 µM with CAKI-1 renal.
